Reference: article PMC3765824, “Trough colistin plasma level is an independent risk factor for nephrotoxicity: a prospective observational cohort study” (BMC Infectious Diseases, 2013)
Where two headings read alike, the source gives them in different places. Bridge positions count the residues as written; N and C are the ends. Square brackets hold non-standard residues; d marks the D form. Peptide text beside a SMILES is read from it. * marks the point of attachment. X1 = CC[C@H](C)CCCCC(=O)*; Dab = NCC[C@H](N)C(=O)O

What was measured:
[1] = Colistin plasma concentrations at steady state (HPLC); type: in vivo, patients; conditions: human; for Cmax: intravenous; for level at 72 h: iv
Method: Evaluation of the colistin concentration in plasma was performed after 3 days of treatment, when the colistin concentrations had reached steady state. The samples were immediately centrifuged (3000 g for 10 minutes) and the plasma was stored at −80°C until analysis. Colistin plasma trough concentrations (Cmin) were measured just before the next dose. Maximum plasma concentrations (Cmax) were taken 30 minutes after the end of the CMS infusion (1 h after the start of infusion).
Colistin concentrations in plasma were determined using a validated high-performance liquid chromatography (HPLC) method as described by Li et al., with minor modifications. After protein precipitation, the samples were centrifuged (14000 g, 5 min) and the supernatant transferred to solid phase extraction (SPE) C18 cartridges (Sep-Pak, Waters, Milford, MA, USA), in which derivation with 9-fluorenylmethyl chloroformate (FMOC-Cl) was performed. Elution of the fluorescence derivatives was performed with acetone mixed with acetonitrile and boric acid. Finally, 20 μl of the mixture was injected into the HPLC. The HPLC system was made up of Waters equipment that included a Waters 2475 multi-λ Fluorescence Detector, a Waters 1525 binary pump with column heater, a Waters degasser, and a Waters 717 autoinjector sampler. The stationary phase was a Waters SunFire column C18, 4.6 × […], 5 μm. The mobile phase was a mixture of acetonitrile, tetrahydrofuran and water delivered at an isocratic flux of 1 mL/min. The chromatogram run time was 20 minutes and the detector setting was excitation wavelength 260 nm and emission wavelength 315 nm. The concentrations of colistin were calculated by multiplying the obtained colistin sulfate plasma concentrations by 1163/1403 (1163 being the average molecular weight of colistin A and B, which are the greater part of the products, and 1403 the average molecular weight of colistin sulfate). The colistin plasma concentration in each patient was calculated as the sum of colistin A and B, the two main components. Calibration curves were linear in the range 0.1-8 mcg/ml and the accuracy quality control samples varied from 90–110 % of the nominal concentration for intraday and interday analysis, with a precision (CV%) of 10% or less. The limit of quantification was 0.1 mcg/ml and the limit of detection was 0.05 mcg/mL.

[2] = tested on: patients receiving intravenous colistin methanesulfonate sodium (CMS); assay: Colistin-associated nephrotoxicity: AKI by RIFLE criteria during CMS treatment; type: in vivo; conditions: for N° (%) of patients fulfilling criterion: ESKD (E) / N° (%) of patients fulfilling criterion: Failure (F) / N° (%) of patients fulfilling criterion: Injury (I) / N° (%) of patients fulfilling criterion: Loss (L) / N° (%) of patients fulfilling criterion: No injury / N° (%) of patients fulfilling criterion: Risk (R): RIFLE
Method: (§1) This prospective observational study was performed at a 400-bed acute-care university hospital in Barcelona, Spain. A pharmacy-generated alarm system was used to identify patients on CMS treatment for therapy of infections caused by MDR-GNB. From January 2010 to June 2011, patients (>18 years) were included if they had received colistin methanesulfonate sodium (CMS) for at least 4 days. Patients were excluded if they were receiving renal replacement therapy prior to the initiation of CMS.
CMS for injection was used and dosed in millions of international units (IU) throughout the study. The drug was administered intravenously in 100 mL normal saline over 30 minutes in the commercially available colistimethate formulation for injection (GES Genéricos Españoles ®), with each vial containing 80 mg CMS (equivalent to 1 million international units of CMS). Dose selection was based on the individual criteria of the responsible clinicians, who were not aware that this study was being performed. Although there were some dose adjustments based on baseline renal function, common colistin doses ranged from 1 to 3 million international units (IU) every 8 hours (3–9 million IU daily). Dose adjustments were made according to the package insert’s recommended dosing as follows: GFR ≥ 76 mL/min/1.73 m^2, 4–6 million IU daily in three doses; GFR 40 to 75 mL/min/1.73 m^2, 2–3 million IU daily in 2 doses; GFR 25 to 40 mL/min/1.73 m^2, 1.5-2 million IU daily divided in 1 or 2 doses and; GFR < 25 mL/min/1.73 m^2 , 0.6-1 million of IU daily every 36 hours.
Serum creatinine level and estimated glomerular filtration rate (GFR) were recorded at baseline, on day 7 and at the end of treatment (EOT). We chose these set points because blood tests are done routinely for all inpatients at least once a week and at the end of treatment. The abbreviated Modification of Diet in the Renal Disease Equation (MDRD-4) was used to calculate GFR. Chronic kidney disease (CKD) at baseline was considered if GFR was < 60 mL/min/1.73 m^2 for ≥ 3 months. Patients with increased creatinine (> 1.4 mg/dL) or GFR < 90 mL/min/1.73 m^2 at admission and no prior data regarding chronicity were considered as having acute renal failure due to any cause. The RIFLE criteria (risk, injury, failure, loss, and end-stage kidney disease), estimated with exclusion of the urinary output criterion, were used for detection and stratification of AKI [14] (Table 1). AKI during CMS treatment was defined as a 1.5-fold or more increase in serum creatinine and/or a decrease in the GFR of 25% or more. These criteria needed to be fulfilled for at least 2 consecutive determinations 24 hours apart, after ≥ 4 days of CMS therapy. Patients who developed AKI were followed up for a period of 30 days after the end of CMS treatment to evaluate the reversibility of this toxicity. Patients who died or had no data during this period were excluded from this analysis.
Multivariate analysis of risk factors for colistin nephrotoxicity was constructed by using logistic regression. Univariate analyses were performed separately for each of the risk factor variables to ascertain the odds ratio and 95% confidence interval (CI). All clinically important covariates and those with a P value < 0.2 in the univariate analyses were included in the multivariate analysis. Since Cmax and Cmin values were almost equal, only one of these variables was included in the model.
The ROC curve was used to identify a categorical breakpoint for Cmin that would better identify patients who develop acute kidney injury (AKI) on day 7 and at the end of treatment. For all analyses, a two-sided P value < 0.05 was considered to be statistically significant. The Statistical Package for the Social Sciences (SPSS, version 15.0) was used for statistical analysis.

[3] = tested on: infections caused by MDR-GNB; assay: Clinical response to CMS treatment; type: in vivo, patients
Method: as §1
Data on demographic characteristics including age, gender, body weight, size, and body mass index were collected. Data on the indication for CMS, the administration schedule, the daily CMS dose recorded as millions of IU, the total cumulative CMS dose (millions of IU), and the duration of treatment were collected. Other data recorded included the presence of CKD at baseline, the Charlson score, the severity of disease at the time of the first CMS dose stratified according to the Acute Physiology and the Chronic Health Evaluation (APACHE) II [16]. The concomitant use of aminoglycosides, vancomycin, angiotensin II receptor blockers, angiotensin-converting enzyme inhibitors, loop diuretics, intravenous dye, amphotericin B, non-steroidal anti-inflammatory drugs (NSAIDs), the need for vasopressor drugs, and discontinuation of CMS treatment because of AKI were also recorded. The patient’s clinical status at the beginning of CMS treatment was defined as infection, severe sepsis and shock, according to the standard definition. Clinical response was defined as the resolution of signs, symptoms, and laboratory parameters that defined infection for each patient. The 30-day all-cause mortality was also recorded.

[4] = tested on: patients receiving intravenous colistin methanesulfonate sodium (CMS); assay: 30-day all-cause mortality; type: in vivo; conditions: 102 patients on iv CMS
Excerpt: Data on demographic characteristics including age, gender, body weight, size, and body mass index were collected. Data on the indication for CMS, the administration schedule, the daily CMS dose recorded as millions of IU, the total cumulative CMS dose (millions of IU), and the duration of treatment were collected. Other data recorded included the presence of CKD at baseline, the Charlson score, the severity of disease at the time of the first CMS dose stratified according to the Acute Physiology and the Chronic Health Evaluation (APACHE) II [16]. The concomitant use of aminoglycosides, vancomycin, angiotensin II receptor blockers, angiotensin-converting enzyme inhibitors, loop diuretics, intravenous dye, amphotericin B, non-steroidal anti-inflammatory drugs (NSAIDs), the need for vasopressor drugs, and discontinuation of CMS treatment because of AKI were also recorded. The patient’s clinical status at the beginning of CMS treatment was defined as infection, severe sepsis and shock, according to the standard definition. Clinical response was defined as the resolution of signs, symptoms, and laboratory parameters that defined infection for each patient. The 30-day all-cause mortality was also recorded. […]

[5] = % of the 26 patients with nephrotoxicity at day 7
[6] = End of treatment, multivariate logistic regression

## CC[C@H](C)CCCCC(=O)N[C@@H](CCN)C(=O)N[C@H](C(=O)N[C@@H](CCN)C(=O)N[C@H]1CCNC(=O)[C@H]([C@@H](C)O)NC(=O)[C@H](CCN)NC(=O)[C@H](CCN)NC(=O)[C@H](CC(C)C)NC(=O)[C@@H](CC(C)C)NC(=O)[C@H](CCN)NC1=O)[C@@H](C)O [colistin] (X1-[Dab]T[Dab][Dab][Dab][dL]L[Dab][Dab]T; lactam 4-C)
[1]; 1 million IU/8 h, CMS 1 million IU/8 h (n = 28), steady state, 30 min after infusion, median (interquartile range), read-out: Cmax
  Cmax: 650 ng/mL
[1]; 2 million IU/8 h, CMS 2 million IU/8 h (n = 42), steady state, 30 min after infusion, median (interquartile range), read-out: Cmax
  Cmax: 1130 ng/mL
[1]; 3 million IU/8 h, CMS 3 million IU/8 h (n = 16), steady state, 30 min after infusion, median (interquartile range), read-out: Cmax
  Cmax: 1840 ng/mL
[1]; CMS other doses (n = 16), steady state, 30 min after infusion, median (interquartile range), read-out: Cmax
  Cmax: 1500 ng/mL
[1]; first value of pair, taken as patients without acute renal failure at baseline, read-out: Peak colistin plasma level
  Cmax: 1000 ng/mL
[1]; second value of pair, taken as patients with acute renal failure at baseline, read-out: Peak colistin plasma level
  Cmax: 1820 ng/mL
[1]; 1 million IU/8 h, CMS 1 million IU/8 h (n = 28), steady state trough, median (interquartile range), read-out: Cmin
  level at 72 h: 710 ng/mL
[1]; 2 million IU/8 h, CMS 2 million IU/8 h (n = 42), steady state trough, median (interquartile range), read-out: Cmin
  level at 72 h: 1140 ng/mL
[1]; 3 million IU/8 h, CMS 3 million IU/8 h (n = 16), steady state trough, median (interquartile range), read-out: Cmin
  level at 72 h: 1840 ng/mL
[1]; CMS other doses (n = 16), steady state trough, median (interquartile range), read-out: Cmin
  level at 72 h: 1500 ng/mL
[1]; first value of pair, taken as patients without acute renal failure at baseline, read-out: Trough colistin plasma level
  level at 72 h: 860 ng/mL
[1]; second value of pair, taken as patients with acute renal failure at baseline, read-out: Trough colistin plasma level
  level at 72 h: 1790 ng/mL

## colistin methanesulfonate sodium [CMS]
[2]; 53 patients with AKI
  Patients who developed AKI needing renal replacement therapy: None
[2]; [5]
  Nephrotoxicity at day 7: F (Failure): 2 (7.6) n (%)
  Nephrotoxicity at day 7: I (Injury): 8 (30.7) n (%)
  Nephrotoxicity at day 7: R (Risk): 16 (61.5) n (%)
[2]; % of the 50 patients with nephrotoxicity at EOT
  Nephrotoxicity at the end of treatment: I (Injury): 23(46) n (%)
[2]; CMS 1 million IU/8 h (n = 28)
  AKI at EOT: 14 (50) n (%)
  AKI at day 7: 5 (17.9) n (%)
[2]; CMS 2 million IU/8 h (n = 42)
  AKI at EOT: 21 (50) n (%)
  AKI at day 7: 11 (26.2) n (%)
[2]; CMS 3 million IU/8 h (n = 16)
  AKI at EOT: 9 (56.3) n (%)
  AKI at day 7: 7 (43.8) n (%)
[2]; CMS other doses (n = 16)
  AKI at EOT: 6 (37.5) n (%)
  AKI at day 7: 3 (18.8) n (%)
[2]; Day 7 (n = 102)
  N° (%) of patients fulfilling criterion: ESKD (E): 0 (0) N° (%)
  N° (%) of patients fulfilling criterion: Failure (F): 2 (2) N° (%)
  N° (%) of patients fulfilling criterion: Injury (I): 8 (7.8) N° (%)
  N° (%) of patients fulfilling criterion: Loss (L): 0 (0) N° (%)
  N° (%) of patients fulfilling criterion: No injury: 76 (74.5) N° (%)
  N° (%) of patients fulfilling criterion: Risk (R): 16 (15.7) N° (%)
[2]; Day 7, multivariate logistic regression
  Odds ratio (95% CI) of CMS cumulative dose at day 7 for nephrotoxicity: 0.99 (0.94-1.04)
[2]; EOT (n = 102)
  N° (%) of patients fulfilling criterion: ESKD (E): 0 (0) N° (%)
  N° (%) of patients fulfilling criterion: Failure (F): 13 (12.7) N° (%)
  N° (%) of patients fulfilling criterion: Injury (I): 23 (22.5) N° (%)
  N° (%) of patients fulfilling criterion: Loss (L): 0 (0) N° (%)
  N° (%) of patients fulfilling criterion: No injury: 52 (51) N° (%)
  N° (%) of patients fulfilling criterion: Risk (R): 14 (13.7) N° (%)
[2]; [6]
  Odds ratio (95% CI) of CMS cumulative dose for nephrotoxicity: 0.99 (0.98-1)
  Odds ratio (95% CI) of CMS duration treatment for nephrotoxicity: 1.03 (0.98-1.08)
[2]; n=102, RIFLE criteria
  Patients with nephrotoxicity at day 7: 26 (25.5) n (%)
  Patients with nephrotoxicity at the end of treatment: 50 (49) n (%)
[3]; CMS 1 million IU/8 h (n = 28)
  Clinical response: 25 (89.3) n (%)
[3]; CMS 2 million IU/8 h (n = 42)
  Clinical response: 32 (76.2) n (%)
[3]; CMS 3 million IU/8 h (n = 16)
  Clinical response: 11 (68.8) n (%)
[3]; CMS other doses (n = 16)
  Clinical response: 11 (68.8) n (%)
[3]; all included patients n=102
  Clinical response: 79 (77.5) n (%)
[4]
  30-day all-cause mortality rate: 32.4%
